In patent US11370774B2, “Substituted benzofuran, benzopyrrole, benzothiophene, and structurally related complement inhibitors” (BioCryst Pharmaceuticals, Inc., priority 2018, dated 2022):

Target: Factor D (Homo sapiens (Human), UniProt P00746)
Assay: Factor D esterolytic assay (Z-Lys-SBzl substrate, DTNB, 405 nm)
Format: biochemical
Conditions: Z-Lys-SBzl 1.29 mM, pH 7.5, 10% DMSO, tested a minimum of three times, read-out: Measured Ki (IC50) Value for Compounds: IC50
Procedure, shortened: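 Human Factor D ([…]) with 1.29 mM Z-Lys-SBzl in 100 mM HEPES, 500 mM NaCl, pH 7.5, 10% DMSO; substrate added immediately or after room-temperature preincubation. Released thiol reacted with DTNB, rate followed at 405 nm for 600 sec, 690 nm background subtracted. IC50 from percent inhibition versus uninhibited rate, n≥3.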

Sequence of Factor D (P00746 26-253): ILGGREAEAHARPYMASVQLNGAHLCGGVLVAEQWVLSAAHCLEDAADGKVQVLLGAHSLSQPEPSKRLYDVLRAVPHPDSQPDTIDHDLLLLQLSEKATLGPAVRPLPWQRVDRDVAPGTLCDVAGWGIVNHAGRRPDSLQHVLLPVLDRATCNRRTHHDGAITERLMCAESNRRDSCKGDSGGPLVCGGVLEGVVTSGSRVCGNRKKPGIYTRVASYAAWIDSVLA

IC50, < 1000 nM:
Cc1ccc(CC(=O)O)c(OCc2cc(-c3cccc(CN)c3)c3oc(C)cc3c2)c1 [Compound 423c, 2-(2-((7-(3-(aminomethyl)phenyl)-2-methylbenzofuran-5-yl)methoxy)-4-methylphenyl)acetic acid]
NCc1cccc(-c2cc(COc3cc(C(N)=O)ccc3CC(=O)O)cc3cc(CO)oc23)c1 [Compound 424d, 2-(2-((7-(3-(aminomethyl)phenyl)-2-(hydroxymethyl)benzofuran-5-yl)methoxy)-4-carbamoylphenyl)acetic acid]
Cc1oc2c(-c3cccc(CN)c3)cc(COc3ccccc3CC(=O)O)cc2c1Br [Compound 425f, 2-(2-((7-(3-(aminomethyl)phenyl)-3-bromo-2-methylbenzofuran-5-yl)methoxy)phenyl)acetic acid]
CC(=O)Nc1ccc(CC(=O)O)c(OCc2cc(-c3cccc(CN)c3)c3oc(C)cc3c2)c1 [Compound 426c, 2-(4-acetamido-2-((7-(3-(aminomethyl)phenyl)-2-methylbenzofuran-5-yl)methoxy)phenyl)acetic acid]
Cc1cc(CC(=O)O)c(OCc2cc(-c3cccc(CN)c3F)c3occc3c2)cc1C [Compound 427b, 2-(2-((7-(3-(aminomethyl)-2-fluorophenyl)benzofuran-5-yl)methoxy)-4,5-dimethylphenyl)acetic acid]
Cc1cc(CC(=O)O)c(OCc2cc(-c3ccnc(CN)c3)c3occc3c2)cc1C [Compound 428c, 2-(2-((7-(2-(aminomethyl)pyridin-4-yl)benzofuran-5-yl)methoxy)-4,5-dimethylphenyl)acetic acid]
Cc1cc2cc(COc3cc(C(N)=O)ccc3CC(=O)O)cc(-c3cccc(CN)c3)c2o1 [Compound 429c, 2-(2-((7-(3-(aminomethyl)phenyl)-2-methylbenzofuran-5-yl)methoxy)-4-carbamoylphenyl)acetic acid]
Cc1cc(CC(=O)O)c(OCc2cc(-c3ccnc(CN)c3F)c3occc3c2)cc1C [Compound 430c, 2-(2-((7-(2-(aminomethyl)-3-fluoropyridin-4-yl)benzofuran-5-yl)methoxy)-4,5-dimethylphenyl)acetic acid]
NCc1nccc(-c2cc(COc3ccccc3CC(=O)O)cc3ccsc23)c1F [Compound 431c, 2-(2-((7-(2-(aminomethyl)-3-fluoropyridin-4-yl)benzo[b]thiophen-5-yl)methoxy)phenyl)acetic acid]
CC(=O)Nc1ccc(CC(=O)O)c(OCc2cc(-c3cccc(CN)c3F)c3occc3c2)c1 [Compound 432c, 2-(4-acetamido-2-((7-(3-(aminomethyl)-2-fluorophenyl)benzofuran-5-yl)methoxy)phenyl)acetic acid]
N#Cc1ccc(CC(=O)O)c(OCc2cc(-c3ccnc(CN)c3)c3occc3c2)c1 [Compound 433c, 2-(2-((7-(2-(aminomethyl)pyridin-4-yl)benzofuran-5-yl)methoxy)-4-cyanophenyl)acetic acid]
N#Cc1ccc(CC(=O)O)c(OCc2cc(-c3ccnc(CN)c3F)c3occc3c2)c1 [Compound 435b, 2-(2-((7-(2-(aminomethyl)-3-fluoropyridin-4-yl)benzofuran-5-yl)methoxy)-4-cyanophenyl)acetic acid]
CC(=O)Nc1ccc(CC(=O)O)c(OCc2cc(-c3ccnc(CN)c3)c3occc3c2)c1 [Compound 437c, 2-(4-acetamido-2-((7-(2-(aminomethyl)pyridin-4-yl)benzofuran-5-yl)methoxy)phenyl)acetic acid]
CC(=O)Nc1ccc(CC(=O)O)c(OCc2cc(-c3ccnc(CN)c3F)c3occc3c2)c1 [Compound 438c, 2-(4-acetamido-2-((7-(2-(aminomethyl)-3-fluoropyridin-4-yl)benzofuran-5-yl)methoxy)phenyl)acetic acid]
